{"source": "patent US4689321A", "about": "“Oxo propenyl nucleosides and nucleoside related analogs” (The Research Foundation of State University of New York, priority 1984, dated 1987)", "key": {"[1]": {"system": "murine leukemia", "experiment": "murine leukemia model, ascites cells implanted i.p. in mice (Table I)", "format": "in vivo, murine (CFD1+ mice)", "settings": "for Effect MST % T/C: >125 considered significant; for MST (median survival time): control 6.5", "excerpt": "Tumor Inoculum: 10^6 ascites cells implanted i.p.\nEvaluation: MST = median survival time\nEffect: % T/C = (MST treated/MST control) × 100."}, "[2]": {"system": "L-1210 Leukemia", "experiment": "tumor cell growth in culture, L-1210 Leukemia", "format": "cell-based", "settings": "Mus musculus, L1210, testing at Roswell Park Memorial Institute", "text": "(§1) on Tumor Cell Growth in Culture\n(§2) ^a Testing performed at Roswell Park Memorial Institute. See proposal\n(§3) for methodology and references."}, "[3]": {"system": "Lewis lung carcinoma", "experiment": "tumor cell growth in culture, Lewis lung carcinoma", "format": "cell-based", "settings": "testing at Roswell Park Memorial Institute", "text": "as §1, §2, §3"}, "[4]": {"system": "B-16 melanoma", "experiment": "tumor cell growth in culture, B-16 melanoma", "format": "cell-based", "settings": "Mus musculus, B16, testing at Roswell Park Memorial Institute", "text": "as §1, §2, §3"}, "[5]": {"system": "DLD-1 human colon carcinoma", "experiment": "tumor cell growth in culture, DLD-1 human colon carcinoma", "format": "cell-based", "settings": "testing at Brown University", "text": "as §1\n^b Testing performed at Brown University. Cell lines and methodology"}, "[6]": {"system": "DNA synthesis in HeLa cells", "experiment": "inhibition of DNA synthesis in HeLa cells", "format": "cell-based", "settings": "Homo sapiens, 1 h, 60 min", "protocol": "(§4) Effects of Inhibitors on Synthesis of DNA and TTP in HeLa Cells\n^a Measured, over a period of 60 min., as described in the Legend to […]"}, "[7]": {"system": "TTP formation in HeLa cells", "experiment": "inhibition of TTP formation in HeLa cells", "format": "cell-based", "settings": "Homo sapiens, 0.5 h, 30 min", "protocol": "as §4\n^b HeLa cells were suspended for 30 min. in 2 ml. of minimal essentia\nmedia containing 25 uCi of ^3 H--thymidine. Cells were lysed, carrier\nnucleotides added and ^3 H--TTP isolated by thin layer chromatography"}, "[8]": {"system": "DNA synthesis", "experiment": "cytotoxicity and effect on DNA, RNA and protein synthesis (Fig. I)", "format": "cell-based"}, "[9]": {"settings": "2 mg/kg/inj IP, schedule qd 1 5"}, "[10]": {"settings": "4 mg/kg/inj IP, schedule qd 1 5"}, "[11]": {"settings": "8 mg/kg/inj IP, schedule qd 1 5"}, "[12]": {"settings": "16 mg/kg/inj IP, schedule qd 1 5"}}, "data": [{"smiles": "Cc1cn([C@H]2C[C@H](O)[C@@H](CO)O2)c(=O)n(C=CC=O)c1=O", "note": "[XX-336, 3-(thymidin-3-yl)-prop-2-enal]", "values": [{"measurement": "Effect MST % T/C", "setting": "[1]; [9]", "result": 123, "unit": "%"}, {"measurement": "MST (median survival time)", "setting": "[1]; [9]", "result": 8.0, "unit": "days"}, {"measurement": "Effect MST % T/C", "setting": "[1]; [10]", "result": 123, "unit": "%"}, {"measurement": "MST (median survival time)", "setting": "[1]; [10]", "result": 8.0, "unit": "days"}, {"measurement": "Effect MST % T/C", "setting": "[1]; 8 mg/kg/inj IP, schedule d.1", "result": 154, "unit": "%"}, {"measurement": "MST (median survival time)", "setting": "[1]; 8 mg/kg/inj IP, schedule d.1", "result": 10.0, "unit": "days"}, {"measurement": "Effect MST % T/C", "setting": "[1]; [11]", "result": 146, "unit": "%"}, {"measurement": "MST (median survival time)", "setting": "[1]; [11]", "result": 9.5, "unit": "days"}, {"measurement": "Effect MST % T/C", "setting": "[1]; 16 mg/kg/inj IP, schedule d.1", "result": 131, "unit": "%"}, {"measurement": "MST (median survival time)", "setting": "[1]; 16 mg/kg/inj IP, schedule d.1", "result": 8.5, "unit": "days"}, {"measurement": "Effect MST % T/C", "setting": "[1]; [12]", "result": 146, "unit": "%"}, {"measurement": "MST (median survival time)", "setting": "[1]; [12]", "result": 9.5, "unit": "days"}, {"measurement": "Effect MST % T/C", "setting": "[1]; 32 mg/kg/inj IP, schedule d.1", "result": 123, "unit": "%"}, {"measurement": "MST (median survival time)", "setting": "[1]; 32 mg/kg/inj IP, schedule d.1", "result": 8.0, "unit": "days"}, {"measurement": "IC50", "setting": "[2]", "result": 1.6, "unit": "µM"}, {"measurement": "IC50", "setting": "[3]", "result": 5.9, "unit": "µM"}, {"measurement": "IC50", "setting": "[4]", "result": 4.2, "unit": "µM"}, {"measurement": "IC50", "setting": "[5]", "result": 5, "unit": "µM"}, {"measurement": "inhibition at 0.1 µM", "setting": "[6]; 0.1 μM", "result": 6, "unit": "%"}, {"measurement": "inhibition at 0.3 µM", "setting": "[6]; 0.3 μM", "result": 38, "unit": "%"}, {"measurement": "inhibition at 1 µM", "setting": "[6]; 1.0 μM", "result": 70, "unit": "%"}, {"measurement": "inhibition at 2 µM", "setting": "[6]; 2.0 μM", "result": 88, "unit": "%"}, {"measurement": "inhibition at 20 µM", "setting": "[6]; 20.0 μM", "result": 100, "unit": "%"}, {"measurement": "inhibition at 0.1 µM", "setting": "[7]; 0.1 μM", "result": 6, "unit": "%"}, {"measurement": "inhibition at 0.3 µM", "setting": "[7]; 0.3 μM", "result": 50, "unit": "%"}, {"measurement": "inhibition at 1 µM", "setting": "[7]; 1.0 μM", "result": 75, "unit": "%"}, {"measurement": "inhibition at 2 µM", "setting": "[7]; 2.0 μM", "result": 85, "unit": "%"}, {"measurement": "inhibition at 20 µM", "setting": "[7]; 20.0 μM", "result": 95, "unit": "%"}, {"measurement": "cytotoxicity associated with inhibition of DNA synthesis", "setting": "[8]", "result": "associated dominantly with the inhibition of DNA synthesis"}]}]}
